Reference: patent publication US9284366B2, “Anti-acetylated huntingtin antibodies and uses therof” (The General Hospital Corporation, priority 2006, dated 2016)

What was measured:
[1] = tested on: total Htt and acetyl-Htt level in Neuro2a cells; assay: Proteasome and autophagy inhibitors in Neuro2a cells transfected with Htt590-97Q (western blot); assay type: cell-based; conditions: lactacystin 10 μM or 3-methyladenine 10 mM for 12 hrs
Procedure: Cell Culture and Transfection. Neuro2a, STHdh^Q7/Q7, and COS-7 cells were transfected using Lipofectamine 2000. For HDAC inhibition, TSA (1 μM) and NAM (5 mM) were applied 6 hrs and 16 hrs, respectively, prior to harvest. Unless indicated otherwise, cells were harvested 24 hrs after transfection. For the experiments with proteasome and autophagy inhibitors, Neuro2a cells were treated with lactacystin (10 μM) or 3-methyladenine (10 mM) for 12 hrs. For assessment of LC3 conversion, immortalized striatal cells (STHdh^Q7/Q7) were cultured as described (29), transfected for 48 hrs and treated with TSA (4 μM) and NAM (5 mM) 15 hrs prior to harvest.
To examine which of these pathways may be responsible for clearance of acetylated Htt polypeptide, Neuro2a cells were transfected with Htt590-97Q and treated with inhibitors of proteasome or autophagy. […] In order to further examine whether acetylated Htt polypeptide leads to activation of macroautophagy, LC3 conversion was assessed (17, 18). LC3, a mammalian homologue of yeast Atg8, is a diffusely distributed protein that upon activation by mammalian Atg7 undergoes posttranslational modification resulting in the product LC3-II, which firmly associates with the autophagosomal membrane. The amount of LC3-II, which migrates faster than LC3-I on SDS-PAGE, provides a reliable measure of autophagic activity (17). In order to assess autophagic activity in relation to Htt acetylation, immortalized striatal cells (STHdh^Q7/Q7) were transfected with Htt590-97Q or acetylation-resistant Htt590-97Q-KR, treated with TSA and NAM and analyzed by western blotting with anti-LC3 antibody (FIG. 3B).

C. elegans neurons = conditions: dose-dependent manner; cited from earlier work
Drosophila model of HD = conditions: pharmacological inhibition of HDAC; cited from earlier work

For `Cn1cnc(N)c2ncnc1-2` [3-methyladenine], the acetyl-Htt level [1] was “accumulation”.

For `CC(/C=C/C(=O)NO)=C\[C@@H](C)C(=O)c1ccc(N(C)C)cc1` [TSA, trichostatin A], the “degeneration of C. elegans neurons induced by mutant Htt” value (C. elegans neurons) is listed as “reduced the degeneration”.

With `CC(=O)N[C@@H](CSC(=O)[C@]1([C@@H](O)C(C)C)NC(=O)[C@H](C)[C@@H]1O)C(=O)O` [lactacystin] the acetyl-Htt level [1] was “no significant effect” and the “total Htt level” value [1] was “no significant effect”.

In the case of `O=C(CCCCCCC(=O)Nc1ccccc1)NO` [SAHA, Suberoylanilide hydroxamic acid], the “lethality and degeneration in Drosophila model of HD” value (Drosophila model of HD) is listed as “rescue the lethality and degeneration”.
